Test results from patent EP2657347A1, “Electrochemical competitive assay and use thereof” (Université Paris Diderot - Paris 7, priority 2012, dated 2013).
Read-outs that look alike come from different tables or passages of the source.

Experiments:
[1] = tested on: 49-mer scramble oligonucleotide; experiment: Redox-mediated catalytic cyclic voltammetry titration with random DNA control; assay type: binding; conditions: random sequence with the same GC ratio
Description: 2-Amino-1,3-propanediol hydrochloride (Aldrich), 2-amino-1,3-propanediol (Aldrich), NaCl (Fluka), MgCl2 (Sigma), 1-tyrosinamide (Aldrich), d-tyrosinamide (Millegen, France), paracetamol (Aldrich) and tyrosine (Sigma), triphenylphosphine (Aldrich), diethylazidocarboxylate solution (DEAD) (Aldrich), and ferrocene methanol (Aldrich) were used without further purification. All syntheses were performed with freshly distilled solvents (THF and MeOH). The oligonucleotides (1-DNA and d-DNA) were synthesized and HPLC-purified by Eurogentec (Anger, France) and their concentration was controlled by UV-Vis spectroscopy using a Nanodrop 2000 spectrophotometer (ThermoFisher). The oligonucleotides sequences were: • Apt49-T: (SEQ ID NO: 1) 5'-[…] ― 3' • Scramble: (SEQ ID NO: 2) 5'- […] ― 3'
All experiments were performed in 5 mM Tris buffer (pH 7) containing 10 mM MgCl2 and 50 mM NaCl (Recognition Buffer, RBr). The L-Tym concentration is always 5 µM. For cyclic voltammetric experiments, 1 µM [Os(bpy)3]2+ with 5 µM 1-Tym in a droplet of 50 µL RBr was used. So, before each experiment, the droplet is shaking with a micropipette. This procedure is repeated until we obtain a reproducible and stable voltammogram. Mother solution of Fc-1-Tym was a […] solution in DMF. This product is conserved at 4°C and seal with parafilm. […]

D-Apt49 = experiment: Homogeneous electrochemical competitive binding assay in 20% fetal bovine serum
Description: • Figure 1: Electrochemically competitive assay of the invention. Left-hand column: before the addition of the sample: a first redox signal is measured. Right-hand column: after the addition of a sample containing the target to be detected or measured: a second redox signal is measured. (A) Homogeneous electrochemically competitive assay: the presence of the target disrupts the complex formed between the oligonucleotide ligand and the redox-labeled target. […] (B) Heterologous electrochemically competitive assay, wherein the oligonucleotide ligand is attached to a solid phase: the presence of the target disrupts the complex formed between the oligonucleotide ligand and the redox-labeled target, thereby inducing a better detection of the redox labeled-target. […] (C) Heterologous electrochemically competitive assay, wherein the oligonucleotide ligand is attached to the electrode: the presence of the target disrupts the complex formed between the oligonucleotide ligand and the redox-labeled target, thereby reducing the detection of the redox labeled-target. […] (f) CV of 1 µM [Os(bpy)3]^2+ alone. […] Error bars: standard deviations from 3 measurements. Plain lines: fits of eq 5 to the experimental data. • Figure 3: (A) CVs (v = 0.05 V s^-1) of 5 mM Tris buffer (pH 7.0) containing 50 mM NaCl, 10 mM Mg^2+, 5 µM Fc-L-Tym and (a) 0 µM, (b) 1 µM, (c) 2 µM, (d) 3 µM, (e) 4 µM (f) 5 µM (g) 7.5 µM (h) 10 µM (i) 12.5 µM and (j) 15 µM of D-Apt49. (B) Normalized anodic peak current response as a function of aptamer concentration. Each data is the average of 3 measurements. Error bars are standard deviations. Plain line: fit of eq 5 to the experimental data. • Figure 4: Competitive binding curves performed in (A) 5 mM Tris buffer (pH 7 + 50 mM NaCl + 10 mM MgCl2) or (B) 20% fetal bovine serum (simply diluted with a 4 mM MgCl2 aqueous solution) as a function of (●, ★, ▼, Δ) L-Tym or (○) D-Tym concentration. (*) Assay of 5 µM L-Tym in the presence of 5 mM D-Tym. The Fc-L-Tym concentration was always C^0T*= 5 µM, whereas the D-Apt49 concentrations were C^0R: (●) 3, (★,○,*) 10, (▼) 40 and (Δ) 100 µM.
The enantiospecificity of the assay was next characterized using the same methodology but for solutions containing the D-Tym enantiomer. […] To evaluate the enantiospecific performance of the aptamer, the assay of trace amount of L-Tym in the presence of a large excess of D-Tym was examined and, as reported in Figure 4A, it has been found possible to detect as low as 5 µM L-Tym in the presence of 5 mM D-Tym. This remarkable performance means that as low as 0.1 % of an enantiomeric impurity in a nonracemic mixture can be assayed in a very short analysis time (<1 min). This is competitive with conventional separation techniques, and one order of magnitude lower than the 1% currently attainable by NMR. Finally, the ability to perform an assay under realistic biological conditions was examined. For such purpose, homogenous electrochemical competitive binding assays of 5-fold diluted fetal bovin serum samples spiked with known amounts of […] were then performed (Figure 4B).

[2] = biological target: anti-L-tyrosinamide aptamer; conditions: previously determined by isothermal titration calorimetry; cited from earlier work

NC(=O)[C@@H](N)Cc1ccc(O)cc1 [L-Tym, L-tyrosinamide]
current response when the aptamer was replaced by a 49-mer random DNA sequence [1]: no significant current response decrease
Kd (D-Apt49; 5-fold diluted fetal bovine serum, average of the fitted curves, read-out: Kd (average value)): 10 µM
Kd (D-Apt49; 20% fetal bovine serum, 5 µM Fc-L-Tym, 40 µM D-Apt49, read-out: Kd): 9 µM
Kd (D-Apt49; 20% fetal bovine serum, 5 µM Fc-L-Tym, 100 µM D-Apt49, read-out: Kd): 11 µM
Kd [2]: 1.75 to 3.2 µM
